Laboratory results taken from patent US12202835B2, “Substituted aromatic ring-linked dioxinoquinazolines and dioxinoquinolines as kinase inhibitors” (BEIJING SCITECH-MQ PHARMACEUTICALS LIMITED, priority 2018, dated 2025).

Tests used:
TRKA kinase = TRKA kinase (Homo sapiens (Human), UniProt P04629); experiment: Assay of small molecular compounds for inhibiting the activity of TRKA kinase (LANCE TR-FRET); format: biochemical
Outline: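 LANCE TR-FRET with ULight-TK peptide; compounds pre-incubated 5 min with TRKA (2× solution 2 nM), then substrate/ATP added (4× mix: 400 nM peptide, 40 μM ATP). Reaction 60 min at room temperature in dark, 1% DMSO final; stopped, detection developed 60 min, signal read.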

Ba/F3-AXL cells = experiment: Assay for inhibiting the proliferation of Ba/F3-AXL cells (CCK-8); format: cell-based; settings: 72 hours of incubation, medium with 100 ng/mL hGas6, CCK-8
Protocol: The values were then imported into Graphpad Prism 5 software for curve fitting, and IC50 was calculated.

Ba/F3 LMNA-NTRK1 cells = experiment: Assay for inhibiting the proliferation of Ba/F3 LMNA-NTRK1 cells (CCK-8); format: cell-based; settings: Mus musculus, BaF3
Outline: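 Cells were seeded and cultured overnight, then treated with graded compound concentrations (final DMSO 0.25%) for 72 h. CCK-8 was added for 1–2 h at 37 °C and OD450 read. Survival was normalised to untreated and cell-free blank wells, and IC50 was fitted.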

VEGFR-2 kinase = VEGFR-2 kinase (Homo sapiens (Human), UniProt P35968); experiment: Assay of small molecular compounds for inhibiting the activity of VEGFR-2 kinase (LANCE TR-FRET); format: biochemical; settings: read-out: VEGFR2 IC50
Chain of VEGFR-2 kinase (P35968 20-1356): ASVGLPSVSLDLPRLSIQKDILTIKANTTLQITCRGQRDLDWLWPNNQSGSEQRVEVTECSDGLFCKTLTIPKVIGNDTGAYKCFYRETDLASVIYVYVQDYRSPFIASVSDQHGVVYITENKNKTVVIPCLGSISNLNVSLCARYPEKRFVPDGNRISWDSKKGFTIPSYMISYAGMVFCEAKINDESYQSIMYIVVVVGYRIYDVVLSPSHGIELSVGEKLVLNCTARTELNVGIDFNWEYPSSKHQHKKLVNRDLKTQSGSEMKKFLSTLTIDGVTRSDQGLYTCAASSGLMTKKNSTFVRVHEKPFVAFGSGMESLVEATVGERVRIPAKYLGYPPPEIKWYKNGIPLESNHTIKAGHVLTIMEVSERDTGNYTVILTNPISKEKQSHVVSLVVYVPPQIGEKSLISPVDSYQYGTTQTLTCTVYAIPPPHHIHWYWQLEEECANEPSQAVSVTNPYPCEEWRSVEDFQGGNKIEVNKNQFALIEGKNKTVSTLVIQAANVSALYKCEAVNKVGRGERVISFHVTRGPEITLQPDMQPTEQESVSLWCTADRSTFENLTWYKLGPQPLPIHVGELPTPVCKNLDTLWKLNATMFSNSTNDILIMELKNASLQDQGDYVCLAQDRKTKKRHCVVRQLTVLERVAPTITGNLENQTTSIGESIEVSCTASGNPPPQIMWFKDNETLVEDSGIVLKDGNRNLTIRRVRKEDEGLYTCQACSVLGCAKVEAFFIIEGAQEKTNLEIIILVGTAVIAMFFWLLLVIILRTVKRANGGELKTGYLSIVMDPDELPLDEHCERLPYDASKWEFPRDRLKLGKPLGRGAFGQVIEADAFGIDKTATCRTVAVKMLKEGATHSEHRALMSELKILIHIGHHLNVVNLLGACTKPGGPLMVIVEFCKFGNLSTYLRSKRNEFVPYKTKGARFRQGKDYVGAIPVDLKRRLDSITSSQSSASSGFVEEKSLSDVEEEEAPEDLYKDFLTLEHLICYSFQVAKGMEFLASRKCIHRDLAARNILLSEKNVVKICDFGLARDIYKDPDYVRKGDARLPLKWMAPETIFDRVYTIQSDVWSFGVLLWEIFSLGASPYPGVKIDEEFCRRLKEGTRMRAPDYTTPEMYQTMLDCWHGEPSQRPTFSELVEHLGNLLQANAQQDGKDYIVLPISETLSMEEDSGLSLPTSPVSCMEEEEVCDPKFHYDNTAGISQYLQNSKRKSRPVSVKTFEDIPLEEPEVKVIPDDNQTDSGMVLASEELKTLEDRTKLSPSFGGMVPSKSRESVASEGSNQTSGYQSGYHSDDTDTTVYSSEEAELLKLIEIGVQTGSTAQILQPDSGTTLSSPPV
Outline: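 LANCE TR-FRET with human VEGFR-2 (2× stock 0.5 nM) preincubated 30 min with compound (final 2500 to 0.042 nM, 11-point 3-fold), then ULight-JAK-1 (Tyr1023) peptide/ATP added (4× stocks 200 nM/40 μM). Reaction 60 min room temperature, 4% DMSO; IC50 from inhibition-rate curve.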

Chain of TRKA kinase (P04629 33-796): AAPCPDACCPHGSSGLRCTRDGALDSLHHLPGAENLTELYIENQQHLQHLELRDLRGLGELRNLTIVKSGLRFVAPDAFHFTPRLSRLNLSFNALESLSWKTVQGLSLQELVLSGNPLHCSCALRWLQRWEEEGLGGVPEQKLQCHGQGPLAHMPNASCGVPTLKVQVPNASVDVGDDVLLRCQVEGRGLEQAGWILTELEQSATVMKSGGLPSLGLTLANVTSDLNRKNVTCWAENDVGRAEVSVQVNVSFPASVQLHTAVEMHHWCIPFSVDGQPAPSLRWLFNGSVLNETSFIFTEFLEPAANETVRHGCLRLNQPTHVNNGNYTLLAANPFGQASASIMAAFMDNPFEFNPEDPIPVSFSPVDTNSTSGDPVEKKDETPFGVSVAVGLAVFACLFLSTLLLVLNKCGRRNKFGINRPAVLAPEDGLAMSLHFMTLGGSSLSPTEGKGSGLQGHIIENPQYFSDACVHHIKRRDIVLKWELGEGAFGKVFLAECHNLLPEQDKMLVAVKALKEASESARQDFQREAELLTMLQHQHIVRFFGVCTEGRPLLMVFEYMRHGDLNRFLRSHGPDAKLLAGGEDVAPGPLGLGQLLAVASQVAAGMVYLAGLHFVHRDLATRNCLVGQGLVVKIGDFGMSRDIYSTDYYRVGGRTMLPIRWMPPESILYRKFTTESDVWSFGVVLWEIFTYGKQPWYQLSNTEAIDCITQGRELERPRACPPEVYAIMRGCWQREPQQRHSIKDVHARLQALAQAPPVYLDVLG

Structure (SMILES)	IC50 (TRKA kinase)	IC50 (Ba/F3-AXL cells)	IC50 (Ba/F3 LMNA-NTRK1 cells)	IC50 (VEGFR-2 kinase)
COc1ccn(-c2ccc(F)cc2)c(=O)c1C(=O)Nc1ccc(Oc2ccnc3cc(OCCCC#N)c4c(c23)OCCO4)cc1Cl [Example 132, N-(2-chloro-4-((5-(3-cyanopropoxy)-2,3-dihydro-[1,4]dioxino[2,3-f]quinolin-10-yl)oxy)phenyl)-1-(4-fluorophenyl)-4-methoxy-2-oxo-1,2-dihydropyridine-3-carboxamide]	< 50 nM	< 50 nM	< 50 nM	500 to 5000 nM
CCOc1ccn(-c2ccc(F)cc2)c(=O)c1C(=O)Nc1ccc(Oc2ccnc3cc(OCCCC#N)c4c(c23)OCCO4)cc1Cl [Example 134, N-(2-chloro-4-((5-(3-cyanopropoxy)-2,3-dihydro-[1,4]dioxino[2,3-f]quinolin-10-yl)oxy)phenyl)-1-(4-fluorophenyl)-4-ethoxy-2-oxo-1,2-dihydropyridine-3-carboxamide]	< 50 nM	< 50 nM	< 50 nM	50 to 500 nM
CCOc1ccn(-c2ccc(F)cc2)c(=O)c1C(=O)Nc1ccc(Oc2ccnc3cc(OCC(C)(C)O)c4c(c23)OCCO4)cc1Cl [Example 142, N-(2-chloro-4-((5-(2-hydroxy-2-methylpropoxy)-2,3-dihydro-[1,4]dioxino[2,3-f]quinolin-10-yl)oxy)phenyl)-1-(4-fluorophenyl)-4-ethoxy-2-oxo-1,2-dihydropyridine-3-carboxamide]	< 50 nM	< 50 nM	< 50 nM	50 to 500 nM
